Our source for the Selectivity ratio and Ki values is ChEMBL document CHEMBL1146864, “Aryloxyethylamines: binding at alpha7 nicotinic acetylcholine receptors” (Bioorg Med Chem Lett, 2006).

Bounds are passed on as bounds.

Test system in the first assay: not listed separately
Kind of assay: Selectivity for alpha-7 over alpha4beta2.
`C[N+](C)(C)CCOc1cccnc1`: the Selectivity ratio stood at 560.

For a further assay, the target named is Neuronal acetylcholine receptor subunit alpha-7 (Rattus norvegicus, UniProt Q05941). The assay can be described thus: Displacement of [125I]iodo-MLA from alpha-7 nAChR in rat cerebral cortex. The assay is classed as tissue-based. In general terms: Displacement assays read how much labelled ligand stays bound in the presence of the test substance.
Sequence of Neuronal acetylcholine receptor subunit alpha-7 (Q05941 whole entry): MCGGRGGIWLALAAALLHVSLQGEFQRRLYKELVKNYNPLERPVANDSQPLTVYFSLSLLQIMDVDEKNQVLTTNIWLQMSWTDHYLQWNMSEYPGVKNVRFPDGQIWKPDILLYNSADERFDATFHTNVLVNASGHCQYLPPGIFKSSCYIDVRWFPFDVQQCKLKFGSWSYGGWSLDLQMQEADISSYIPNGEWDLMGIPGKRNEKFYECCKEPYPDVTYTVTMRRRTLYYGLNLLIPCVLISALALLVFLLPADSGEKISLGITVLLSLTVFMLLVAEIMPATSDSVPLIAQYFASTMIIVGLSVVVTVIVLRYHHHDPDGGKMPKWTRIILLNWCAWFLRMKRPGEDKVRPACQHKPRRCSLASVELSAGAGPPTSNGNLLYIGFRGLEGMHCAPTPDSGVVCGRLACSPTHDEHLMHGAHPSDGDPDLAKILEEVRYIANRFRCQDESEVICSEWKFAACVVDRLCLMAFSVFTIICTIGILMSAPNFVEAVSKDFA
By Ki is commonly meant a measure of affinity in units of concentration, obtained from inhibition or displacement. The low end stands for tighter binding, the high end for weaker binding. As for `C[N+](C)(C)CCOc1ccc(CCc2ccccc2)nc1`, the Ki was found to be 4.32 µM.
On the same count and under the same terms, under `CN1CCCC1c1ccc(CCc2ccccc2)nc1` (racemic) stands over 10 µM.
Take `C[N+](C)(C)CCOc1ccc(CCc2ccccc2)cc1`: the Ki was found to be 7.5 µM.
On to `CN(C)CCOc1ccccc1`, for which the Ki was over 10 µM.
Still for that read-out and setting: the figure for `CNC/C=C\c1cccnc1` is over 10 µM; for `C[N+](C)(C)CCOc1ccc(/C=C/c2ccccc2)cc1` it is 2.17 µM.
Regarding `CN(C)CCOc1cccnc1`, the Ki is over 10 µM.
Consider `C[N+](C)(C)CCOc1ccc(/C=C/c2ccccc2)nc1`, for which affinity was put at a Ki of 1.25 µM.
The same measure, in the same setting: the figure for `CNCCOc1cccnc1` is over 10 µM; for `CN(C)CCOc1ccc(/C=C/c2ccccc2)nc1` it is over 10 µM; for `CNC/C=C/c1cccnc1` it is over 10 µM.
The same measure, in the same setting: under `C[N+](C)(C)CCOc1cccnc1` stands 0.28 µM; under `C[N+](C)(C)CCCOc1cccnc1`, over 10 µM; under `CCN(C)CCOc1cccnc1`, over 10 µM.
Still for that read-out and setting: the figure for `C[N+](C)(C)CCOc1ccccc1` is 1.1 µM.
For the compound `CN(C)CCOc1ccc(CCc2ccccc2)cc1`, the Ki was over 10 µM.
On the same count and under the same terms, under `CN(C)CCOc1ccc(/C=C/c2ccccc2)cc1` stands over 10 µM; under `CN(C)CCOc1ccc(CCc2ccccc2)nc1`, over 10 µM; under `CNCCCc1cccnc1`, over 10 µM.
